# Where “and” joins values, the source holds several entries; their conditions need not be identical. Identical values can stand only once.
# Test system: TSC2−/− MEFs
# Test: Rapamycin screen: SILAC quantitative phosphoproteomics (two biological replicates)
# Type: cell-based, mouse
# Description: Two sets of large-scale, quantitative phospho-proteomics experiments were performed to fully define how mTOR-containing complexes signal to downstream effectors (FIG. 1A). The first SILAC experiment (rapamycin screen) was performed using growth factor-deprived TSC2−/− mouse embryonic fibroblasts (MEFs).
# Two populations of TSC2−/− cells were grown in parallel, one in conventional media (“light”) and the other in media containing [^13C6^15N2]lysine and [^13C6^15N4]arginine (“heavy”) (FIG. 1A and Table 5). […] We performed two biological replicates of this experimental design with cross-labeling (swapping the labeled state of the rapamycin-treated cells, Table 5), from which a total of 14,635 (FDR=0.25%) and 32,500 (FDR=0.28%) phosphopeptides were identified, respectively. These corresponded to identification of at least 4,484 and 6,832 unique phosphorylation sites on 1,615 and 1,866 proteins, respectively. The quantitation was highly accurate (Table 5) with 93.7% of the phosphoproteome changing less than 50% in abundance between the rapamycin-treated (light) and control (heavy) cells (second biological replicate experiment, Median Log2(H/L)=−0.02 and standard deviation Log2(H/L)=0.53, FIG. 1A). […] Note that the Rapamycin screen includes two biological replicates.
# Using this criteria, several hundred peptides (corresponding to 148 and 85 proteins respectively, in the two biological replicates, Table 11) were determined to contain rapamycin-sensitive phosphorylation sites. […] Note that there are two biological replicate experiments for the rapamycin screen (“Table 11 Rapa Replicate 1,” and “Table 11 Rapa Replicate 2,” respectively) and one Ku-0063749 replicate (“Table 11 Ku”). Treatment for the light and heavy cells in each experiment is described in FIG. 1C. We observed a similar distribution for the phosphopeptides in the […] biological replicate experiment and found 85 proteins (Table 11) that carried rapamycin-sensitive phosphorylation sites.
# The analysis identified 4,484 and 6,832 unique phosphorylation sites on 1,615 and 1,866 proteins from two biological replicate experiments, respectively, and achieved a high level of accuracy in quantitation (Table 5). […] A representative identification of the known rapamycin-sensitive phosphorylation sites on ribosomal protein S6 is shown in FIG. 1B.
# TSC2−/− MEFs were used in the rapamycin screen due to constitutive hyperactivation of mTORC1 signaling in this cell line. Cells were grown in light ([^12C6^14N2]Lys, [^12C6^14N4]Arg) and heavy ([^13C6^15N2]Lys, [^13C6^15N4]Arg) DMEM (Cambridge Isotope Labs), respectively. Both light and heavy DMEM were supplemented with 10% dialyzed FBS (Invitrogen). Cells were serum-deprived for 17 hours and cells were cultured inheavy media were treated with 20 nM rapamycin for two hours. We performed two biological replicates of this experimental design with cross-labeling (swapping the labeled state of the rapamycin-treated cells).
# [1] = downregulated phosphorylation, TSC2−/− MEFs, 20 nM rapamycin 2 h vs DMSO, second biological replicate
compound,measurement,setting,value
CO[C@H]1C[C@@H]2CC[C@@H](C)[C@@](O)(O2)C(=O)C(=O)N2CCCC[C@H]2C(=O)O[C@H]([C@H](C)C[C@@H]2CC[C@@H](O)[C@H](OC)C2)CC(=O)[C@H](C)/C=C(\C)[C@@H](O)[C@@H](OC)C(=O)[C@H](C)C[C@H](C)/C=C/C=C/C=C/1C [rapamycin],Log2 Area (H/L) Ratio,"Ahctf1 phosphopeptide NGVSLFNS*PKTEQPSPVVHSFPHPELPEAFVGTPISNTSQR, SEQ ID NO: 1120, rapamycin screen",1.0661
same,Log2 Area (H/L) Ratio,"Ahctf1 phosphopeptide NGVSLFNSPK@T*EQPSPVVHSFPHPELPEAFVGTPISNTSQR^, SEQ ID NO: 1119, rapamycin screen",1.0661
same,Log2 Area (H/L) Ratio,"Ahctf1 phosphopeptide NGVSLFNSPK@TEQPSPVVHS*FPHPELPEAFVGTPISNTSQR^, SEQ ID NO: 1121, rapamycin screen",1.0661
same,Log2 Area (H/L) Ratio,"Ahnak phosphopeptide S*NS*FSDERAEFSAPSTPTGTLEFAGGDAK@, SEQ ID NO: 1147, rapamycin screen",1.0143
same,Log2 Area (H/L) Ratio,"Ahnak phosphopeptide S*NS*FSDEREFSAPSTPTGTLEFAGGDAK, SEQ ID NO: 1148, rapamycin screen",1.0143
same,Log2 Area (H/L) Ratio,"Ahnak phosphopeptide S*NS*FSDEREFSAPSTPTGTLEFAGGDAK, SEQ ID NO: 1149, rapamycin screen",1.0143
same,Log2 Area (H/L) Ratio,"Arhgap17 phosphopeptide LGEQGPEPGPT*PPQT*PT*PPST*PPLAK, SEQ ID NO: 1124, rapamycin screen",1.0618
same,Log2 Area (H/L) Ratio,"Arid1a phosphopeptide GPS*PSPVGS*PASVAQSR^, SEQ ID NO: 1151, rapamycin screen",1.0107
same,Log2 Area (H/L) Ratio,"Atxn2 phosphopeptide TS*PAGGTWSSVVSGVPR, SEQ ID NO: 1157, rapamycin screen",1.0015
same,Log2 Area (H/L) Ratio,"Atxn2 phosphopeptide TS*PAGGTWSSVVSGVPR^, SEQ ID NO: 1156, rapamycin screen",1.0015
same,Log2 Area (H/L) Ratio,"Azi1 phosphopeptide ANNAGASIYPTGPADPCPPASES*S*PEQWQSPEDKPQDIHSQGEAR, SEQ ID NO: 1138, rapamycin screen",1.0268
same,Log2 Area (H/L) Ratio,"Dlg5 phosphopeptide SS*SHLDPAATPHSTLQGSSAGTPEHPSVIDPLMEQDEGPGTPPAK@, SEQ ID NO: 1129, rapamycin screen",1.0498
same,Log2 Area (H/L) Ratio,"Eif4ebp1 phosphopeptide NS*PVAK@T*PPK@DLPAIPGVTSPTSDEPPM#QASQSQLPSSPEDK@, SEQ ID NO: 1143, rapamycin screen",1.0227
same,Log2 Area (H/L) Ratio,"Eif4ebp1 phosphopeptide NS*PVAKT*PPKDLPAIPGVTSPT*SDEPPMQASQSQLPSS*PEDK, SEQ ID NO: 1150, rapamycin screen",1.0129
same,Log2 Area (H/L) Ratio,"Eif4ebp2 phosphopeptide TVAISDAAQLPQDYCTT*PGGTLFSTT*PGGTRIIYDR, SEQ ID NO: 1137, rapamycin screen",1.0271
same,Log2 Area (H/L) Ratio,"Eif4ebp2 phosphopeptide TVAISDAAQLPQDYCTT*PGGTLFSTT*PGGTR^IIYDR^, SEQ ID NO: 1136, rapamycin screen",1.0271
same,Log2 Area (H/L) Ratio,"Erbb2ip phosphopeptide VGS*EHSLLDPPGK, SEQ ID NO: 1135, rapamycin screen",1.0307
same,Log2 Area (H/L) Ratio,"Erf phosphopeptide FPPST*PSEVLS*PTEDPRS*PPACSSSSSSLFSAVVAR, SEQ ID NO: 1154, rapamycin screen",1.0039
same,Log2 Area (H/L) Ratio,"Fam129a phosphopeptide HNLFEDNM#ALPSESVSS*LTDLK, SEQ ID NO: 1142, rapamycin screen",1.0232
same,Log2 Area (H/L) Ratio,"Fam129a phosphopeptide HNLFEDNMALPSES*VSSLTDLK@TAMGS*NQAS*PAR^R^, SEQ ID NO: 1152, rapamycin screen",1.0048
same,Log2 Area (H/L) Ratio,"Fam129a phosphopeptide HNLFEDNMALPSESVSSLT*DLK@TAMGS*NQAS*PAR^R^, SEQ ID NO: 1153, rapamycin screen",1.0048
same,Log2 Area (H/L) Ratio,"Hells phosphopeptide S*INYSELDQFPSELEK, SEQ ID NO: 1132, rapamycin screen",1.0332
same,Log2 Area (H/L) Ratio,"Hells phosphopeptide S*INYSELDQFPSELEK@, SEQ ID NO: 1133, rapamycin screen",1.0332
same,Log2 Area (H/L) Ratio,"Hells phosphopeptide S*INYSELDQFPSELEK@, SEQ ID NO: 1134, rapamycin screen",1.0332
same,Log2 Area (H/L) Ratio,"Ncaph2 phosphopeptide NGS*PVPVPDIS*QEPDGPALSGGEEDAEDGAEPLEVALEPAEPR^, SEQ ID NO: 1127, rapamycin screen",1.0598
same,Log2 Area (H/L) Ratio,"Ncaph2 phosphopeptide NGS*PVPVPDISQEPDGPALS*GGEEDAEDGAEPLEVALEPAEPR, SEQ ID NO: 1126, rapamycin screen",1.0598
same,Log2 Area (H/L) Ratio,"Ncaph2 phosphopeptide NGS*PVPVPDISQEPDGPALS*GGEEDAEDGAEPLEVALEPAEPR^, SEQ ID NO: 1125, rapamycin screen",1.0598
same,Log2 Area (H/L) Ratio,"Pbx1 phosphopeptide TAVTATNVSAHGSQANS*PSTPNSAGGY*PSPCYQPDR^R^, SEQ ID NO: 1128, rapamycin screen",1.054
same,Log2 Area (H/L) Ratio,"Pds5b phosphopeptide AES*PETSAVESTQST*PQK, SEQ ID NO: 1141, rapamycin screen",1.0246
same,Log2 Area (H/L) Ratio,"Pds5b phosphopeptide AES*PETSAVESTQST*PQK@, SEQ ID NO: 1139, rapamycin screen",1.0246
same,Log2 Area (H/L) Ratio,"Pds5b phosphopeptide AES*PETSAVESTQST*PQK@, SEQ ID NO: 1140, rapamycin screen",1.0246
same,Log2 Area (H/L) Ratio,"Phldb1 phosphopeptide WAAHGTS*PEDFSLTLGAR^, SEQ ID NO: 1118, rapamycin screen",1.068
same,Log2 Area (H/L) Ratio,"Ranbp10 phosphopeptide SQDS*YPGS*PSLSPR, SEQ ID NO: 1161, rapamycin screen",1.0009
same,Log2 Area (H/L) Ratio,"Ranbp10 phosphopeptide SQDSYPGS*PSLS*PR, SEQ ID NO: 1158, rapamycin screen",1.0009
same,Log2 Area (H/L) Ratio,"Ranbp10 phosphopeptide SQDSYPGS*PSLS*PR^, SEQ ID NO: 1159, rapamycin screen",1.0009
same,Log2 Area (H/L) Ratio,"Ranbp10 phosphopeptide SQDSYPGS*PSLS*PR^, SEQ ID NO: 1160, rapamycin screen",1.0009
same,Log2 Area (H/L) Ratio,"Ranbp10 phosphopeptide SQDSYPGS*PSLS*PR^, SEQ ID NO: 1162, rapamycin screen",1.0009
same,Log2 Area (H/L) Ratio,"Rb1 phosphopeptide DGEGPDNLEPACPLSLPLQGNHTAADMYLS*PLRS*PK, SEQ ID NO: 1123, rapamycin screen",1.0618
same,Log2 Area (H/L) Ratio,"Rb1 phosphopeptide DGEGPDNLEPACPLSLPLQGNHTAADMYLS*PLR^S*PK@, SEQ ID NO: 1122, rapamycin screen",1.0618
same,Log2 Area (H/L) Ratio,"Samhd1 phosphopeptide CDGS*PR^T*PPS*TPPATANLSADDDFQNTDLR^, SEQ ID NO: 1155, rapamycin screen",1.0027
same,Log2 Area (H/L) Ratio,"Shroom2 phosphopeptide SRS*S*PSTDHYSQEVPVEPNR, SEQ ID NO: 1144, rapamycin screen",1.0176
same,Log2 Area (H/L) Ratio,"Shroom2 phosphopeptide SRS*S*PSTDHYSQEVPVEPNR, SEQ ID NO: 1145, rapamycin screen",1.0176
same,Log2 Area (H/L) Ratio,"Shroom2 phosphopeptide SR^S*S*PSTDHYSQEVPVEPNR^, SEQ ID NO: 1146, rapamycin screen",1.0176
same,Log2 Area (H/L) Ratio,"Tox4 phosphopeptide LSTTPS*PTNS*LHEDGVDDFRR, SEQ ID NO: 1130, rapamycin screen",1.0342
same,Log2 Area (H/L) Ratio,"Tox4 phosphopeptide LSTTPS*PTNS*LHEDGVDDFRR, SEQ ID NO: 1164, rapamycin screen",1.0005
same,Log2 Area (H/L) Ratio,"Tox4 phosphopeptide LSTTPS*PTNS*LHEDGVDDFR^R^, SEQ ID NO: 1131, rapamycin screen",1.0342
same,Log2 Area (H/L) Ratio,"Tox4 phosphopeptide LSTTPS*PTNS*LHEDGVDDFR^R^, SEQ ID NO: 1163, rapamycin screen",1.0005
same,"Median (treated/ctrl) fold-change of phosphopeptide Eif4ebp1 S64, T69",[1],2.8 fold
same,"Median (treated/ctrl) fold-change of phosphopeptide Eif4ebp2 S65, T70",[1],39.1 fold
same,"Median (treated/ctrl) fold-change of phosphopeptide Eif4ebp2 T37, T46",[1],2.3 fold
same,"Median (treated/ctrl) fold-change of phosphopeptide LSSLRAS*TS*KSES*S*QK, RPS6 S240, S242, S246, S247",[1],4.5 fold
same,"Median (treated/ctrl) fold-change of phosphopeptide MNILSS*QS*PLHPSTLNAVIHR, Grb10 S421, S423 (isoform 3; S501/S503 in isoform 1)",[1],more than 27 fold and 27.3 fold
same,"Median (treated/ctrl) fold-change of phosphopeptide RLS*S*LRASTSK, RPS6 S235, S236",[1],30.5 fold
same,"Median (treated/ctrl) fold-change of phosphopeptide Rps6kb1 S441, T444, S447",[1],2.8 fold
same,"Median (treated/ctrl) fold-change of phosphopeptide S*LPVSVPVWAFK, Akt1s1 S184",[1],2.2 fold
same,"Median (treated/ctrl) fold-change of phosphopeptide SFS*KEVEER, Eif4g1 S1189",[1],2.8 fold
same,"Median (treated/ctrl) fold-change of phosphopeptide SRT*GS*ESSQTGASATSGR, Eif4b T420, S422",[1],4.3 fold
same,"Median (treated/ctrl) fold-change of phosphopeptide TGS*ESS*QTGASATSGR, Eif4b S422, S425",[1],4.6 fold
same,"Median (treated/ctrl) fold-change of phosphopeptide TTS*FAESCKPVQQPSAFGSMK, Gsk3β S9",[1],approximately 3.3 fold and 3.3 fold
same,"Median (treated/ctrl) fold-change of phosphopeptide ULK1 S747, S757, T763",[1],4 fold and 4.1 fold
same,"Median (treated/ctrl) fold-change of triply phosphorylated Grb10 peptide T76, S96, S104",[1],5.4 fold
same,decrease of 4EBP1 T36/T45 phosphorylation after rapamycin treatment,rapamycin screen,20%

# Source: patent US20130252950A1, “TARGETING MTOR SUBSTRATES IN TREATING PROLIFERATIVE DISEASES” (President and Fellows of Harvard College, priority 2010, published 2013)
